Values after ≈ are worked out from the molar mass of the structure shown. Where two headings read alike, the source gives them in different places.
Key:
avidin [1] = target: T1, avidin (Gallus gallus, UniProt P02701); conditions: cited from earlier work
T1 construct: purchased SIGMA-ALDRICH A9275

[2] = system: HeLa (cervical cancer) cells; test: Cell viability (DAPI nuclei count); format: cell-based, human; conditions: 48 h
Method: (§1) To determine the relative viability, after incubation cells were fixed and stained with DAPI and the number of nuclei per well determined using a CeligoTM Image Cytometer (Figure S52 to S60). […] page 43: Cell viability studies Compound cytotoxicity was tested simultaneously on five representative cell lines […] All cells were cultured in DMEM Glutamax without pyruvate with 10% fetal bovine serum and 1% penicillin/streptomycin (Gibco). Cells were incubated with the compound for 24 or 48 h […] The tested concentration range for each compound was […] The required […] Greiner CELLSTAR® microplates) using the Echo 550 Acoustic Liquid Handler and wells were back-filled with DMSO when required to keep a final DMSO concentration […] Next, 50 μL of cell solution was added to the compound-containing wells using the Integra® […] Bulk dispenser. Cell solutions were prepared to get 5000 […] cells per well for hTERT RPE-1, and 5000 (24 h)/2500 (48 h) cells per well for BEAS- […] After incubation, cells were fixed with 4% PFA (Merck, […]), permeabilized with […] DAPI (Merck, 10236276001). Viable cells were counted using 377 nm excitation and 447 nm emission filters on the CeligoTM Image Cytometer. The number of nuclei per well was determined using the Direct Cell Count analysis from the CeligoPro Sofware […] All conditions were performed in triplicate. Staurosporine (Cambridge Bioscience, s7600) was used as a positive control and DMSO only as a negative control. The percentage of cell viability was normalized to the DMSO-only control and […] logistic curve with the scipy.optimize.curve_fit function. S43

[3] = system: HaCat (non-cancer skin) cells; test: Cell viability (DAPI nuclei count); format: cell-based, human; conditions: 48 h
Method: as §1

[4] = system: HCT116 (colorectal cancer) cells; test: Cell viability (DAPI nuclei count); format: cell-based, human
Method: as §1

[5] = system: RPE1 (retinal pigment epithelial cells); test: Cell viability (DAPI nuclei count); format: cell-based, human
Method: as §1

E. faecium ATCC 19434 = test: MIC broth microdilution assay; format: cell-based, Enterococcus faecium; conditions: 24 h, read-out: MIC E. faecium (Gram positive)
Method: (§2) Antibacterial activity assay […]
(§3) MIC broth microdilution assay
(§4) 3 × 125 mL Erlenmeyer flasks, each filled with 12.5 mL MHBII, were inoculated with three different colonies of S. aureus NTCC 12973. 3 × 125 mL Erlenmeyer flasks, each filled with 12.5 mL BHI broth, were inoculated with three different colonies of E. faecium ATCC 19434. The cultures were incubated at 37 °C with shaking at 180 rpm for 16 h.
(§5) OD600 of ~2.5. The suspensions of S. aureus cultures were diluted 100-fold with MHBII while the E. faecium cultures were diluted 4-fold. The resultant suspensions were incubated for a further 3 h at 37 °C with shaking. […]
(§6) after 3 h. Stock solutions of the title compounds were prepared in the requisite broth from 100 mM stocks in DMSO with the exception of carbenicillin, which was from a 100 mM stock in water and vancomycin from a 10 mM stock in DMSO. 15 × 96 well plates were primed with concentration gradients of the analytes and carbenicillin as shown in Figure S60 for S. aureus. 15 × 96 well plates were primed with the concentration […]
(§7) μL per well of the relevant bacterial culture in the requisite broth to 100 μL per well.

streptavidin = streptavidin (Streptomyces avidinii, UniProt P22629); test: Isothermal titration calorimetry (ITC) with streptavidin; format: binding; conditions: 25 °C, 10 mM HEPES + 2% DMSO; for Kd: read-out: dissociation constant (Kd) to streptavidin
Sequence of streptavidin (P22629 25-183, species assumed): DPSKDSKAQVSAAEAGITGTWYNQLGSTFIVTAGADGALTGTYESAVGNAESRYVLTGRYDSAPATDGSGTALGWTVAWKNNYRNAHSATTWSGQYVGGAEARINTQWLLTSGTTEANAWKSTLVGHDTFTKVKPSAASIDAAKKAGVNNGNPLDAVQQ
Method: Isothermal titration calorimetry
Streptavidin (20 µM in 10 mM HEPES plus 2% DMSO) was titrated stepwise with 2 uL injections of the compound (200 µM in 10 mM HEPES + 2% DMSO) at 25 °C, using a Malvern MicroCal PEAQ-ITC. Raw thermograms (top panels) and the binding isotherm from the integrated thermogram (bottom panels) were fit using the One Set of Sites model in the MicroCal PEAQ-ITC analysis software. Circles indicate the integrated heat, and the curve represents the best fit.
Figure S46: Isothermal titration calorimetry measurements of 5.
(§8) (1 picture or pasted object on this page, not shown here)

[6] = system: Psuedomonas aeruginosa ATCC BAA-47; test: Rapid screen broth microdilution assay; format: cell-based, Pseudomonas aeruginosa; conditions: rapid screen without replicates, 24 h, read-out: MIC P. aeruginosa (Gram negative)
Method: (§9) Antibacterial activity assay
(§10) Rapid screen broth microdilution assay
(§11) 5 × 125 mL Erlenmeyer flasks, each filled with 12.5 mL Mueller Hinton broth II (MHBII), were inoculated with Klebsiella pneumoniae ATCC 13883, Acinetobacter baumanii ATCC 17978, Psuedomonas aeruginosa ATCC BAA-47, Staphylococcus aureus […]
(§12) with 12.5 mL BHI broth was inoculated with Enterococcus faecium ATCC 19434. The cultures were incubated at 37 °C with shaking at 180 rpm for 16 h. The suspensions were diluted 100-fold with the requisite broth (E. faecium: 4-fold) and the resultant suspensions incubated for a further 3 h at 37 °C with shaking. […]
(§13) of 0.8–1.2 after 3 h. Stock solutions of the title compounds were prepared in the requisite broth from 100 mM stocks in DMSO with the exceptions of carbenicillin, which was from a 100 mM stock in water and ciprofloxacin from a 10 mM stock in DMSO.
(§14) 6 × 96 well plates were primed with a concentration gradient of the analytes from 200 to 3.13 µM, carbenicillin from 200 to 3.13 µM and ciprofloxacin from 10 to 0.16 µM. The cells were diluted 100-fold to an OD600 of 0.01. All plates were then inoculated with 50 μL per well bacterial culture in the requisite broth to 100 μL per well. Plates were then incubated at 37 °C for 24 h before reading OD600 on a BMG Clariostar platereader. […]

avidin [7] = target: T1, avidin; test: HABA/avidin assay; format: binding; conditions: titration of HABA/avidin mixture, absorbance at 500 nm
Method: properties towards avidin using the HABA assay.[8] A mixture of avidin (6.8 μM, SIGMA-ALDRICH: A9275) and 4'-hydroxyazobenzene-2-carboxylic acid (HABA, 0.3 mM, SIGMA-ALDRICH: H5126) was dissolved in 50 mM sodium phosphate buffer (20 mL, pH 7.4) and allowed to equilibrate for 24 h at 4 °C. Stock solutions of each compound were prepared in dimethyl sulfoxide at a concentration of 1.1 mM. The […]
to the prepared avidin/HABA mixture (1 mL) at room temperature at 5–10 min intervals […]
absorbance then recorded with an Agilent 8453 UV/Vis spectrometer. The formation of the adduct was indicated by a decrease in the absorbance at 500 nm due to the displacement of HABA from the avidin. By plotting -ΔA500 nm vs. the molar concentration ratio c(compound):c(avidin), the binding stoichiometry of the compound to avidin was determined.

[8] = LogP by shake-flask method (n-octanol/phosphate buffer)
Method: using the "shake-flask" method.[6],[7] In short, phosphate buffer (50 mM, pH 7.4) was saturated with n-octanol by shaking a 1:1 mixture of both solution on a laboratory shaker for 72 h, after which the phases were separated. Stock solutions of each complex were then prepared in dimethylsulfoxide at a concentration of 10 mM. […]
solution with a concentration of 100 µM. From this solution, 1000 µL were transferred into an Eppendorf tube and mixed with 1000 µL of n-octanol. After shaking for 15 min and centrifugation (5 min, 6000 rpm), the two phases were carefully separated, and the contact layer discarded. Then, the absorbance of each phase was recorded with an Agilent 8453 UV/Vis spectrometer.
2 mL solution with a concentration of 100 µM. From this solution, 1000 µL were transferred into an Eppendorf tube and mixed with 1000 µL phosphate buffer. After shaking for 15 min and centrifugation (5 min, 6000 rpm), the phases were carefully separated, and the contact layer discarded. Then, the absorbance of each phase was recorded with an Agilent 8453 UV/Vis spectrometer.

S. aureus NTCC 12973 = test: MIC broth microdilution assay; format: cell-based, Staphylococcus aureus; conditions: 24 h, read-out: MIC S. aureus (Gram positive)
Method: as §2, §3, §4, §5, §6, §7
Plates were then incubated at 37 °C for 24 h before reading OD600 on a BMG Clariostar […]
Figure S50: Dose response profiles of the title compounds against S. aureus.
as §8

[9] = system: Escherichia coli K12 ATCC 10798; test: Rapid screen broth microdilution assay; format: cell-based; conditions: rapid screen without replicates, 24 h, read-out: MIC E. coli (Gram negative)
Method: as §9, §10, §11, §12, §13, §14

[10] = system: Klebsiella pneumoniae ATCC 13883; test: Rapid screen broth microdilution assay; format: cell-based; conditions: rapid screen without replicates, 24 h, read-out: MIC K. pnuemoniae (Gram negative)
Method: as §9, §10, §11, §12, §13, §14

[11] = system: Acinetobacter baumanii ATCC 17978; test: Rapid screen broth microdilution assay; format: cell-based, Acinetobacter baumannii; conditions: rapid screen without replicates, 24 h, read-out: MIC A. baumannii (Gram negative)
Method: as §9, §10, §11, §12, §13, §14

[12] = system: BEAS2B (non-cancer lung) cells; test: Cell viability (DAPI nuclei count); format: cell-based, human; conditions: 48 h
Method: as §1

[13] = system: BEASB2, HaCat, RPE1, HCT116 and HeLa cell lines; test: Cell viability, summary over all cell lines studied; format: cell-based, human; conditions: summary of Table 3, 48 h, read-out: IC50 values, range over all cell lines studied
Method: as §1

[14] = shake-flask method, n-octanol/phosphate buffer 50 mM pH 7.4

T1 sequence (P02701 25-152): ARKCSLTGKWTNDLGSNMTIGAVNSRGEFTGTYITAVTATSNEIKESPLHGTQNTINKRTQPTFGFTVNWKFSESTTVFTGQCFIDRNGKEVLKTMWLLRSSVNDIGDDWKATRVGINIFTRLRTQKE

Molecule	IC50 [2] [µM]	IC50 [3] [µM]	IC50 ([4]; 48 h) [µM]	IC50 ([5]; 48 h) [µM]	MIC (E. faecium ATCC 19434; three colonies) [µM]	MIC [6] [µM]	MIC (S. aureus NTCC 12973; three colonies) [µM]	MIC [9] [µM]	MIC [10] [µM]	MIC [11] [µM]	Kd (streptavidin) [µM]	LogP [8, 14]	other results
O=C(O)c1ccccc1N=Nc1ccc(O)cc1 [HABA, 4'-hydroxyazobenzene-2-carboxylic acid]													Kd (avidin [1]): 6 µM
COC(=O)c1n[n]([Pt+])nc1C(=O)OC.F[P-](F)(F)(F)(F)F.c1ccc(-c2cccc(-c3ccccn3)n2)nc1 [Compound 15]	15.9	15.4	6	4.9	>200	>200	>200	>200	>200	>200			dissociation constant (Kd) to streptavidin (streptavidin): did not bind to streptavidin; avidin binding in HABA assay (result in words) (avidin [7]): non-specific protein binding; LogP ([8]; pH 7.4): -1.80
O=C(C#Cc1ccccc1)CCCC[C@@H]1SC[C@@H]2NC(=O)N[C@@H]21 (stereo in doubt) [Compound 5, 7-[(3aS,4S,6aR)-2-oxohexahydro-1H-thieno-[3,4-d]imidazol-4-yl]-1-phenyl-1-heptyn-3-one]											< 0.001	highly lipophilic^a	IC50 ([12]; Homo sapiens, BEAS-2B): 3.6 µM; IC50 ([2]; Homo sapiens, HeLa): 3.3 µM; IC50 ([3]; Homo sapiens, HaCaT): 3.3 µM; IC50 ([4]; Homo sapiens, HCT-116, 48 h): 4 µM; IC50 ([5]; Homo sapiens, RPE-1, 48 h): 2.4 µM; IC50 ([13]; Homo sapiens): 2 to 4 µM; MIC (E. faecium ATCC 19434; Enterococcus faecium, ATCC19434, three colonies): 200 µM (≈ 65.7 µg/mL); MIC ([6]; Pseudomonas aeruginosa, ATCCBAA47): > 200 µM; MIC (S. aureus NTCC 12973; Staphylococcus aureus, NTCC12973, three colonies): > 200 µM; MIC ([9]; Escherichia coli, ATCC10798): > 200 µM; MIC ([10]; Klebsiella pneumoniae, ATCC13883): > 200 µM; MIC ([11]; Acinetobacter baumannii, ATCC17978): > 200 µM
F[P-](F)(F)(F)(F)F.O=C1N[C@H]2[C@H](CS[C@H]2CCCCC(=O)c2n[n]([Pt+][c]3cccc(-c4cccc(-c5ccccn5)n4)n3)nc2-c2ccccc2)N1 [Compound 16, [Pt(triazolatoC6H5,biotin)(terpy)]PF6]	13.3	14.1	6.8	5.2	>200	>200	>200	>200	>200	>200	0.13	-0.78	IC50 [12]: 8.3 µM
[Ir(triazolatoC6H5,biotin)(ppy)(terpy]PF6 [Compound 18]	> 50	> 50	> 50	39.7	100	>200	100	>200	>200	>200	0.045		IC50 [13]: > 35 µM
